Consider 16 compounds from patent US20220107328A1, “METHODS OF TREATING LIVER DISEASES” (Camp4 Therapeutics Corporation, priority 2018, published 2022).

In series [1] the test system is PNPLA3 mRNA. Kind of series: qRT-PCR of PNPLA3 mRNA in compound-treated primary human hepatocytes. The note with it: for Relative PNPLA3 mRNA levels: human hepatocytes; for Relative PINPLA3 mRNA: hepatocytes; for Relative PNPLA3 mRNA expression: Table 35. On the technique in general: In qPCR the cycle at which signal appears reflects the starting amount.
For series [2], the system named is COL1A1 mRNA. Description: qRT-PCR of COL1A1 mRNA in human primary hepatic stellate cells. The format is cell-based. The note with it: for Relative COL1A1 mRNA levels RQ: GSK3 inhibitors in hepatic stellate cells; for COL1A1 expression (in words): hepatic stellate cells, serial dilutions, 18 hours; for Primary Stellate cells COL1A1 (fold change in mRNA expression): 3 μM, relative to GAPDH.

For series [3], the system named is PNPLA3 mRNA. Kind of series: qRT-PCR of PNPLA3 mRNA in human primary hepatic stellate cells. It counts as cell-based. The note with it: for Relative PNPLA3 mRNA levels RQ: GSK3 inhibitors in hepatic stellate cells; for PNPLA3 mRNA levels (in words): hepatic stellate cells, serial dilutions, 18 hours; for Primary Stellate cells PNPLA3 (fold change in mRNA expression): 3 μM, relative to GAPDH; for Relative PNPLA3 mRNA expression: stellate cells, Table 37.

Series [4] deals with PCSK9 mRNA. Description: qRT-PCR of PCSK9 mRNA in primary hepatocytes. The format is cell-based, human. The note with it: donor 4178, 3 μM, relative to GUSB.
Setting [5] is: JAK inhibitors, 10 μM, qRT-PCR, mean of three replicates ± standard deviation.

The structures appear in SMILES notation.

As for `Cc1cc(Nc2nc(N[C@@H](C)c3ncc(F)cn3)ncc2Cl)[nH]n1` [AZD1480], in series [1] (setting [5]), the “Relative PNPLA3 mRNA levels” value worked out at 0.69 ± 0.10. The “PNPLA3 expression (in words)” value in series [1] (validation in human hepatocytes from a second donor, qRT-PCR) is reported as “efficient downregulation of PNPLA3”.
On to `CN1CCN(S(=O)(=O)c2ccc(-c3cnc(N)c(C(=O)Nc4cccnc4)n3)cc2)CC1` [AZD2858], for which the “Relative COL1A1 mRNA levels RQ” value in series [2] (1 μM) worked out at 0.83; in series [2] (10 μM), 0.72. The “COL1A1 expression (in words)” value in series [2] was “modestly decreased both PNPLA3 and COL1A1 in a dose dependent manner”. For the same compound, the “Relative PNPLA3 mRNA levels RQ” value in series [3] (1 μM) is 0.48; in series [3] (10 μM), 0.72. Further, in series [3], the “PNPLA3 mRNA levels (in words)” value was “modestly decreased both PNPLA3 and COL1A1 in a dose dependent manner”.
As for `Cc1cc([C@@H](C)Nc2ccccc2C(=O)O)c2nc(N3CCOCC3)cc(=O)n2c1` [AZD6482], the “Primary Stellate cells COL1A1 (fold change in mRNA expression)” value in series [2] came out at 1.20. In addition, the “Primary Hepatocytes 4178 PCSK9 (fold change in mRNA expression)” value in series [4] came out at 0.56. The “Primary Stellate cells PNPLA3 (fold change in mRNA expression)” value in series [3] is reported as 0.87.
Regarding `CC[C@@H]1C(=O)N(C)c2cnc(Nc3ccc(C(=O)NC4CCN(C)CC4)cc3OC)nc2N1C1CCCC1` [BI 2536], the “Relative PINPLA3 mRNA” value in series [1] (10 uM) turned out to be 0.38.
As for `O=C1Nc2cc(Br)ccc2/C1=C1/Nc2ccccc2/C1=N\O` [BIO], the “Relative COL1A1 mRNA levels RQ” value in series [2] (1 μM) was determined as 0.74; in series [2] (10 μM), 0.59. In addition, the “COL1A1 expression (in words)” value in series [2] was “modestly decreased both PNPLA3 and COL1A1 in a dose dependent manner”. For the same compound, the “Relative PNPLA3 mRNA levels RQ” value in series [3] (1 μM) was 1.09; in series [3] (10 μM), 0.54. Besides, the “PNPLA3 mRNA levels (in words)” value in series [3] is “modestly decreased both PNPLA3 and COL1A1 in a dose dependent manner”.
For `O=C(NCCCNc1nc(Nc2cccc(NC(=O)N3CCCC3)c2)ncc1I)c1cccs1` [BX795], the “Relative PNPLA3 mRNA levels” value in series [1] (TBK1 inhibitor, concentration not given) came out at 0.51±0.06.
In the case of `Nc1cc(C(F)(F)F)c(-c2cc(N3CCOCC3)nc(N3CCOCC3)n2)cn1` [Buparlisib (BKM120, NVP-BKM120)], the “Relative PINPLA3 mRNA” value in series [1] (0.1 uM) was found to be 1.049; in series [1] (0.3 uM), 0.729; in series [1] (1 uM) it was 0.659; in series [1] (3 uM) it was 0.515.
Turning to `CCS(=O)(=O)N1CCN(c2ccc(Nc3ncc(C(N)=O)c(NC4CC4)n3)cc2)CC1` [Cerdulatinib], the “Relative PNPLA3 mRNA levels” value in series [1] (setting [5]) came out at 0.82 ± 0.00.
As to `Cc1cnc(Nc2ccc(OCCN3CCCC3)cc2)nc1Nc1cccc(S(=O)(=O)NC(C)(C)C)c1` [Fedratinib (SAR302503, TG101348)], the “Relative PINPLA3 mRNA” value in series [1] (10 uM) was 0.25.
Consider `O=C(Nc1nc2cccc(-c3ccc(CN4CCS(=O)(=O)CC4)cc3)n2n1)C1CC1` [Filgotinib], for which the “Relative PNPLA3 mRNA levels” value in series [1] (setting [5]) is listed as 1.07 ± 0.14. Besides, the figures for the “Relative PINPLA3 mRNA” value in series [1] (1 uM) and in series [1] (10 uM) were 0.781 and 0.365, respectively.
As to `Cc1c(Cn2c(C)nc3c(C(=O)O)cc(N4CCOCC4)cc32)cccc1C(F)(F)F` [GSK2636771], the “Primary Stellate cells COL1A1 (fold change in mRNA expression)” value in series [2] stood at 1.04. Further, in series [4], the “Primary Hepatocytes 4178 PCSK9 (fold change in mRNA expression)” value was 0.59. Besides, the “Primary Stellate cells PNPLA3 (fold change in mRNA expression)” value in series [3] was 1.06.
`Cc1cc(Nc2cc(CN3CCOCC3)c3nc(C)c(Cc4ccc(Cl)cc4F)n3n2)n[nH]1` [Gandotinib]: the “Relative PNPLA3 mRNA levels” value in series [1] (setting [5]) was determined as 0.76 ± 0.13.
Turning to `Cl.NNc1nncc2ccccc12` [Hydralazine HCI], the “Relative PINPLA3 mRNA” value in series [1] (10 uM) is on record as 0.25.
For `COc1cc2ncnc(Nc3ccc(O)cc3)c2cc1OC` [JANEX-1], the “Relative PNPLA3 mRNA levels” value in series [1] (setting [5]) stood at 0.78 ± 0.11.
As to `COc1cc(-c2cc(-c3cccc(O)c3)cnc2N)cc(OC)c1OC` [K02288], the “PNPLA3 mRNA, TGFβ and BMP pathway inhibitors (in words)” value in series [1] (primary human hepatocytes) is given as “did not decrease PNPLA3 mRNA in primary human hepatocytes”. The “Relative PNPLA3 mRNA expression” value in series [1] (primary human hepatocytes, 3.3 uM) is 1.259 ± 0.3268; in series [1] (primary human hepatocytes, 10 uM), 2.687 ± 0.4146.
In the case of `c1ccc2c(-c3cnn4cc(-c5ccc(N6CCNCC6)cc5)cnc34)ccnc2c1` [LDN193189], the “Relative PNPLA3 mRNA expression” value is 0.95 ± 0.09 in series [3] (0.01 uM), 0.83 ± 0.12 in series [3] (0.1 uM), 0.76 ± 0.07 in series [3] (1 uM) and 9.25 in series [3] (10 uM).
